Measurements as given in paper PMC3836994, “Killer Bee Molecules: Antimicrobial Peptides as Effector Molecules to Target Sporogonic Stages of Plasmodium” (PLoS Pathogens, 2013).
No end group written: not given here.

How the values were obtained:
[1] = system: Anopheles gambiae Sua 4.0 cells; test: Sua 4.0 mosquito cell growth (cell counts); type: cell-based; conditions: 25 µM AMP; for Average number of cells over 3 replicates, peptide: seeded 30×10^4/ml, mean of 3 experiments
Description: (§1) To establish potential effects of AMPs on mosquito cells, the An. gambiae Sua 4.0 cell line was used. This facilitated an initial high-throughput screening and provided insights into AMP toxicity, mode of action (lytic or other) and speed of action. Sua 4.0 cells were maintained at 27°C in Schneider's insect medium supplemented with 10% FBS (foetal bovine serum) in T25 culture flasks (Fisher, UK).
(§2) Each AMP was tested separately to establish if it affected cell viability and growth. […] Cells were maintained for 3, 6, 24 or 48 h, after which they were resuspended and a sub-sample from duplicate wells counted using a haemocytometer. To establish cell viability after 48 h (whether simply arrested in development or non-viable), resuspended cells were added to an equal volume of 5% erythrosin B vital dye and viable cells excluding the stain were counted. The viability of 100 cells in triplicate wells was recorded. Each AMP assay was performed in triplicate and included a negative control minus the peptide (5 µl of water alone added to the medium) and a further control of 5 µl of 10% SDS (sodium dodecyl sulphate) substituted for the AMP as this causes 100% cell lysis.

[2] = system: Anopheles gambiae Sua 4.0 cells; test: Sua 4.0 mosquito cell viability (erythrosin B exclusion); type: cell-based; design: dose or concentration left out as unconfirmed; conditions: after 48 h culture; for Average viability of cells (3 replicates), peptide: erythrosin B exclusion, 100 cells in triplicate wells; for Reduction in cell viability: versus control
Description: as §1, §2

P. berghei ookinetes = test: P. berghei ookinete viability in vitro (erythrosin B); type: cell-based, Plasmodium berghei; conditions: 30 min; for Reduction in ookinete viability: versus control
Description: Our primary aim was to target parasites in mosquitoes before they cross the midgut wall, therefore AMPs were first assessed for their ability to kill ookinetes in vitro. […] Ookinete cultures of P. berghei were established from gametocytaemic blood as previously described. Parasites were enriched using cold 0.17M ammonium chloride after 18 h of culture and washed thoroughly with PBS (phosphate buffered saline). Parasites were seeded in triplicate wells of a 96-well microtitre plate at a density of 1×10^5/ml in a volume of 47.5 µl Schneider's insect medium (Invitrogen) with 2.5 µl of the test AMP (final concentration of 50 µM). Ookinetes were incubated for 30 min in conjunction with triplicate control wells containing medium with 2.5 µl of water instead of AMP. A sub-sample of parasites was then added to an equal volume of 5% erythrosin B to assess viability (150 ookinetes in total, taken from 3 wells). Each of the 33 AMPs was screened in this way and assays were performed 3 times. AMPs displaying a high degree of toxicity (>90% of ookinetes displaying erythrosin B staining) underwent further ookinete assays using a concentration of 100 µM AMP. To assess synergistic effects, combinations of two peptides were also tested at a concentration of 25 µM per AMP, in the assay described above.

[3] = system: An. gambiae (Mali strain); test: Mosquito longevity after blood feeds containing AMP; type: in vivo, Anopheles gambiae; conditions: for Significance of effect on longevity over 10 days: 50 µM AMP, Kaplan-Meier, Wilcoxon, peptide vs control; for Percent alive, peptide: over 10 days, 50 µM AMP in human blood, feeds on days 0 and 7, 3 or 4 replicates
Description: (§3) Female An. gambiae (Mali strain, 3–5 days old) were used to establish the effects of AMPs on mosquito longevity and fecundity in the absence of confounding factors introduced with parasite infection. Two hundred 3–6 day old females were fed on human O+ whole blood supplemented with 50 µM AMP (or water control, 1 ml total volume) via feeding chambers of a Hemotek membrane feeding system. Fully engorged mosquitoes were randomly moved into four separate cages, each containing 25 mosquitoes, to facilitate monitoring. Mortality rates were recorded daily for a 10-day period, and oviposition sites were provided on the second and third night post-feeding. A second blood feed containing the same AMP was administered 7 days later to mimic the likelihood that mosquitoes would feed at least twice in the field during the development of sporogonic stages of the malaria parasite. Oviposition sites were again provided to assess fecundity through the number of eggs laid as an average per surviving mosquito. Assays for each AMP were repeated in triplicate on separate generations of mosquitoes. Due to egg retention under experimental conditions, egg production is best measured by dissecting mosquitoes that have not been provided with an oviposition site. However, this is not a feasible method of determining fecundity when longevity is also being measured.

[4] = system: An. gambiae (Mali strain); test: Mosquito oviposition after blood feed containing AMP; type: in vivo, Anopheles gambiae; conditions: for Significance of effect on oviposition: 50 µM AMP, one-way ANOVA, peptide vs control; for Mean no. of eggs laid per mosquito, peptide: after first feed with 50 µM AMP, eggs laid over two nights, averaged per surviving mosquito, 3 or 4 replicates
Description: as §3

P. falciparum = test: Field P. falciparum from gametocyte carriers membrane-fed to An. gambiae (Mali); type: in vivo, Plasmodium falciparum; conditions: 50 µM; for Oocyst prevalence (oocyst positive mosquitoes), peptide: blood of gametocyte carriers, progeny of field An. gambiae; for Oocyst intensity (mean number of oocysts per gut, range in parentheses), peptide: field parasites and mosquitoes
[5] = system: An. gambiae (Mali strain); test: Mosquito longevity after blood feeds containing AMP; type: in vivo, Anopheles gambiae; conditions: 50 µM AMP in blood on days 0 and 7; extended to 30 days
[6] = 3 hrs in culture, haemocytometer count of duplicate wells
[7] = 50 µM of single peptide, n = 150 ookinetes per treatment per replicate

“AGYLLGKINLKALAALAKKILGGAGYLLGKINLKALAALAKKIL [TP10 dimer, TP10 (dimer)]” was tested, and the “Reduction in cell number (compared to control)” value (“Reduction in cell number” below) ([1]; 3 hrs in culture) was 20%, the “Average number of cells over 3 replicates, peptide” value [1, 6] was 240000 mL⁻¹ and the “Reduction in cell number” value ([1]; 24 hrs in culture) was 42%. The “Average number of cells over 3 replicates, peptide” value ([1]; 24 hrs in culture) was 250000 mL⁻¹, the “Reduction in cell number” value ([1]; 48 hrs in culture) was 58% and the “Average number of cells over 3 replicates, peptide” value ([1]; 48 hrs in culture) was 260000 mL⁻¹. The “Average viability of cells (3 replicates), peptide” value (“Average viability of cells” below) [2] was 1%, the “Reduction in cell viability” value [2] was 99% and the “Average ookinete viability (3 reps), peptide” value (from here on “Average ookinete viability”) (P. berghei ookinetes; [7]) was 0%. For the same sequence, the “Reduction in ookinete viability” value (P. berghei ookinetes; 50 µM of single peptide) was 100%, the “Significance of effect on longevity over 10 days” value [3] was “N/S” and the “Percent alive, peptide” value [3] was 76%. The “Significance of effect on oviposition” value [4] was “N/S”, the “Mean no. of eggs laid per mosquito, peptide” value [4] was 25 and the “Oocyst prevalence (oocyst positive mosquitoes), peptide” value (shortened to “Oocyst prevalence”) (P. falciparum; Replicate 1) was 9% (58). The “Oocyst intensity (mean number of oocysts per gut, range in parentheses), peptide” value (P. falciparum; Replicate 1) was <1 (0–4), the “Oocyst prevalence” value (P. falciparum; Replicate 2) was 3% (38) and the “Oocyst intensity (mean number of oocysts per gut, range in parentheses), peptide” value (P. falciparum; Replicate 2) was <1 (0–1). The “Oocyst prevalence” value (P. falciparum; Replicate 3) was 20% (49), the “Oocyst intensity (mean number of oocysts per gut, range in parentheses), peptide” value (P. falciparum; Replicate 3) was <1 (0–2) and the “Effect on longevity over 30 days (in words)” value [5] was “significant reduction in survivorship”.

“KFPKFRRGIPFLFVGPSGKFPKFRRGIPFLFV [Vida 3 dimer]” was tested, and the “Reduction in cell number” value ([1]; 3 hrs in culture) was 7%, the “Average number of cells over 3 replicates, peptide” value [1, 6] was 280000 mL⁻¹ and the “Reduction in cell number” value ([1]; 24 hrs in culture) was 62%. The “Reduction in cell number” value ([1]; 24 hrs in culture, listed as Vida3 dimer) was 62%, the “Average number of cells over 3 replicates, peptide” value ([1]; 24 hrs in culture) was 170000 mL⁻¹ and the “Reduction in cell number” value ([1]; 48 hrs in culture) was 72%. The “Average number of cells over 3 replicates, peptide” value ([1]; 48 hrs in culture) was 190000 mL⁻¹, the “Average viability of cells” value [2] was 58% and the “Average viability of cells” value ([2]; listed as Vida3 dimer) was “above 50%”. The “Reduction in cell viability” value [2] was 38%, the “Average ookinete viability” value (P. berghei ookinetes; [7]) was 4% and the “Reduction in ookinete viability” value (P. berghei ookinetes; 50 µM of single peptide) was 96%. The “Average ookinete viability” value (P. berghei ookinetes; 100 µM of single peptide) was 0%, the “Reduction in ookinete viability” value (P. berghei ookinetes; 100 µM of single peptide) was 100% and the “Reduction in ookinete viability” value (P. berghei ookinetes; 100 µM of single peptide, listed as Vida3 dimer) was 100%. For the same sequence, the “Significance of effect on longevity over 10 days” value [3] was “N/S”, the “Percent alive, peptide” value [3] was 68% and the “Significance of effect on oviposition” value [4] was “N/S”. The “Mean no. of eggs laid per mosquito, peptide” value [4] was 43, the “Oocyst prevalence” value (P. falciparum; Replicate 1) was 3% (63) and the “Oocyst intensity (mean number of oocysts per gut, range in parentheses), peptide” value (P. falciparum; Replicate 1) was <1 (0–1). The “Oocyst prevalence” value (P. falciparum; Replicate 2) was 0% (45), the “Oocyst intensity (mean number of oocysts per gut, range in parentheses), peptide” value (P. falciparum; Replicate 2) was 0 and the “Effect on longevity over 30 days (in words)” value [5] was “no significant long-term effects on longevity”.
